Results: US7435820B2, “Substituted tetrahydro-1H-pyrazolo [3,4-c]pyridines compositions comprising them, and use” (Aventis Pharma S.A., priority 2003, dated 2008)
Read-outs that look alike come from different tables or passages of the source.

What was measured:
human Tie2 = molecular target: T1, human Tie2 (Homo sapiens, UniProt Q02763); experiment: Tie2 kinase inhibition: phosphorylation of GST-PLC (SH2-SH3 fragments) by GST-Tie2, 33P-ATP flashplate; assay type: biochemical
T1 construct: human Tie2 corresponding to amino acids 776-1124 of the intracellular domain was generated by PCR; made in house; host or cells: baculovirus expression system (vector pFastBacGT)
T1 sequence (Q02763 776-1124): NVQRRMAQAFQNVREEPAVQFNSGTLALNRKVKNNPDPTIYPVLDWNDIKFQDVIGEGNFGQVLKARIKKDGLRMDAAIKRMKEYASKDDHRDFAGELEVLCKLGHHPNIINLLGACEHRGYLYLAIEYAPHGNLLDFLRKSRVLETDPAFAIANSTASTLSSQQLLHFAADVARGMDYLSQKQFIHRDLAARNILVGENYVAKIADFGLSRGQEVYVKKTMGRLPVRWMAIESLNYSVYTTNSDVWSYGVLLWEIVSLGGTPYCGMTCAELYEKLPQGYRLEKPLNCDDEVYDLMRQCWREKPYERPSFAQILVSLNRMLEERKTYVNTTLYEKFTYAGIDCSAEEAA
Description: The coding sequence of human Tie2 corresponding to amino acids 776-1124 of the intracellular domain was generated by PCR using the cDNA isolated from human placenta as model. This sequence was introduced into a baculovirus expression vector pFastBacGT in the form of a GST fusion protein.
The inhibitory effect of the molecules is determined in an assay for phosphorylation of PLC by Tie2 in the presence of GST-Tie2 purified to approximately 80% homogeneity. The substrate is made up of the SH2-SH3 fragments of PLC, the latter being expressed in the form of a GST fusion protein.
The kinase activity of Tie2 is measured in a 20 mM MOPS buffer, pH 7.2, containing 10 mM MgCl2, 10 mM MnCl2, 1 mM DTT and 10 mM of glycerophosphate. A reaction mixture made up of 70 μl of kinase buffer containing 100 ng of GST-Tie2 enzyme per well is placed in a flashplate 96-well plate kept on ice. 10 μl of the molecule to be tested, diluted in DMSO, at a concentration of at most 10% are then added. For a given concentration, each measurement is carried out in quadruplicate. The reaction is initiated by adding 20 μl of solution containing 2 μg of GST-PLC, 2 μM of cold ATP and 1 μCi of ^33P[ATP]. After incubation for 1 hour at 37° C., the reaction is stopped by adding 1 volume (100 μl) of 200 mM EDTA. After removal of the incubation buffer, the wells are washed three times with 300 μl of PBS. The radioactivity is measured on a Wallac MicroBeta 1450.
The inhibition of the Tie2 activity is calculated and expressed as percentage inhibition with respect to the control activity determined in the absence of compound.

human KDR enzyme = molecular target: T2, human KDR enzyme (Homo sapiens, UniProt P35968); experiment: KDR kinase inhibition: phosphorylation of PLCγ SH2-SH3 substrate by KDR enzyme, 33P-ATP scintillation plate; assay type: biochemical
T2 construct: The cytoplasmic domain of the human KDR enzyme was cloned in GST fusion form; GST; made in house; host or cells: SF21 insect cells (baculovirus, pFastBac)
T2 sequence (P35968 786-1356 limits assumed): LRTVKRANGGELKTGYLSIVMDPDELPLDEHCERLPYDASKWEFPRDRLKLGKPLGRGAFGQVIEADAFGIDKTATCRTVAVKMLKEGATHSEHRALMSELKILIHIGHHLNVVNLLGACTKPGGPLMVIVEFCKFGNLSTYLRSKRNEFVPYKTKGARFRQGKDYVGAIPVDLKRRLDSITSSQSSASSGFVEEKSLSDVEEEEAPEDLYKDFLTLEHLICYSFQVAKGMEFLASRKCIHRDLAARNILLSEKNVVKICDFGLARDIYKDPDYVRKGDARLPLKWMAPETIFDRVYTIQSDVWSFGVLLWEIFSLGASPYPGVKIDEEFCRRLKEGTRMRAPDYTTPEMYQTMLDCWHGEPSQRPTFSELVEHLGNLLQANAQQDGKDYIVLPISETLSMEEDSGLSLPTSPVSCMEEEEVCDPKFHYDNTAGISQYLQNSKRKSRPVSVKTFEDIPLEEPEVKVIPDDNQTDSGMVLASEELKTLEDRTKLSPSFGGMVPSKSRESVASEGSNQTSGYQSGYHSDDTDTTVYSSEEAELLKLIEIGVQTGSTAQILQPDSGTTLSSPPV
Description: The inhibitory effect of the compounds is determined in an assay for phosphorylation of substrate by the KDR enzyme in vitro using a scintillation technique (96-well plate, NEN).
The cytoplasmic domain of the human KDR enzyme was cloned in GST fusion form into the baculovirus expression vector pFastBac. The protein was expressed in SF21 cells and purified to approximately 60% homogeneity. The KDR kinase activity is measured in 20 mM MOPS, 10 mM MgCl2, 10 mM MnCl2, 1 mM DTT, 2.5 mM EGTA, 10 mM b-glycerophosphate, pH=7.2, in the presence of 10 mM MgCl2, 100 μM Na3VO4 and 1 mM NaF. 10 μl of the compound are added to 70 μl of kinase buffer containing 100 ng of KDR enzyme at 4° C. The reaction is initiated by adding 20 μl of solution containing 2 μg of substrate (SH2-SH3 fragment of PLCγ expressed in the form of an GST fusion protein), 2 μCi γ ^33P[ATP] and 2 μM cold ATP. After incubation for 1 hour at 37° C., the reaction is stopped by adding 1 volume (100 μl) of 200 mM EDTA. The incubation buffer is removed and the wells are washed three times with 300 μl of PBS. The radioactivity is measured in each well using a Top Count NXT (Packard) radioactivity counter.
The background noise is determined by measuring the radioactivity in four different wells containing the radioactive ATP and the substrate alone.
A total activity control is measured in four different wells containing all the reagents (γ^33P-[ATP], KDR and PLC-γ substrate) but in the absence of compound.
The inhibition of the KDR activity with the compound of the invention is expressed as percentage inhibition of the control activity determined in the absence of compound.
The compound SU5614 (Calbiochem) (1 μM) is included in each plate as inhibition control.

[1] = Assay 1, read-out: Tie2 % Inhib at 10 μM (FRX) Assay 1
[2] = Assay 2, read-out: Tie2 % Inhib at 10 μM (FRX) Assay 2
[3] = Assay 1, read-out: KDR % Inhib at 10 μM Assay 1
[4] = Assay 2, read-out: KDR % Inhib at 10 μM Assay 2

Compound | inhibition at 10 µM (human Tie2; read-out: Tie2 % Inhib. 10 μM) [%] | inhibition at 10 µM (human KDR enzyme; read-out: KDR % Inhib. 10 μM) [%] | also measured
Cc1cc2nc(-c3[nH]nc4c3CCN(C(=O)CCc3ccccc3)C4)[nH]c2cc1C [Chemistry 50] | 82.4 | 74.8 | –
Cc1cc2nc(-c3[nH]nc4c3CCN(S(C)(=O)=O)C4)[nH]c2cc1C [Chemistry 3] | – | 78.1 | –
Cc1cc2nc(-c3[nH]nc4c3CCN(C(=O)c3ccccc3NC(=O)c3ccc(Cl)cc3)C4)[nH]c2cc1C [Example P-31378-112-15] | – | – | inhibition at 10 µM (human Tie2; [1]): 80.1%; inhibition at 10 µM (human Tie2; [2]): 83.8%; inhibition at 10 µM (human KDR enzyme; [3]): 75.5%; inhibition at 10 µM (human KDR enzyme; [4]): 77.4%
Cc1cc2nc(-c3[nH]nc4c3CCN(Cc3cccnc3)C4)[nH]c2cc1C [Chemistry 14] | 50.5 | 14.8 | –
Cc1cc2nc(-c3[nH]nc4c3CCN(C(=O)NCc3ccccc3)C4)[nH]c2cc1C [Chemistry 60] | 64.8 | 33.5 | –
COc1ccccc1NC(=O)N1CCc2c(n[nH]c2-c2nc3cc(C)c(C)cc3[nH]2)C1 [Chemistry 67] | 18.1 | 8.1 | –
CCCN1CCc2c(n[nH]c2-c2nc3cc(C)c(C)cc3[nH]2)C1 [Chemistry 18] | 55 | -3.7 | –
Cc1cc2nc(-c3[nH]nc4c3CCN(C(=O)C3CC3)C4)[nH]c2cc1C [Chemistry 45] | 94.1 | 33.4 | –
COc1ccc(S(=O)(=O)N2CCc3c(n[nH]c3-c3nc4cc(C)c(C)cc4[nH]3)C2)cc1 [Chemistry 34] | 84.7 | 18.1 | –
Cc1cc2c(cc1C)NC(c1[nH]nc3c1CCN(C(=O)c1ccc(C)c([N+](=O)[O-])c1)C3)N2 [Example P-31378-112-14] | – | – | inhibition at 10 µM (human Tie2; [1]): 69.7%; inhibition at 10 µM (human Tie2; [2]): 73.8%; inhibition at 10 µM (human KDR enzyme; [3]): 19.5%; inhibition at 10 µM (human KDR enzyme; [4]): 13%
COc1cc(C)ccc1S(=O)(=O)Nc1ccc(N2CCc3c(n[nH]c3-c3nc4cc(C)c(C)cc4[nH]3)C2)nc1 | 98 | – | –
CCN1CCc2c(n[nH]c2-c2nc3cc(C)c(C)cc3[nH]2)C1 [Chemistry 16] | 36.4 | -5.75 | –
C=CCC(=O)N1CCc2c(n[nH]c2-c2nc3cc(C)c(C)cc3[nH]2)C1 [Chemistry 51] | 72.9 | 38.7 | –
Cc1cc2nc(-c3[nH]nc4c3CCN(C(=O)Nc3ccc(Cl)cc3)C4)[nH]c2cc1C [Chemistry 63] | 23.8 | -0.3 | –
O=C(c1cccnc1)N1CCc2c(n[nH]c2-c2nc3ccccc3[nH]2)C1 [Chemistry 69] | 59.3 | 18.6 | –
Cc1cc2nc(-c3[nH]nc4c3CCN(C(=O)c3ccccc3CCc3ccccc3)C4)[nH]c2cc1C [Example P-31378-112-7] | – | – | inhibition at 10 µM (human Tie2; [1]): 92.7%; inhibition at 10 µM (human Tie2; [2]): 92%; inhibition at 10 µM (human KDR enzyme; [3]): 68.6%; inhibition at 10 µM (human KDR enzyme; [4]): 64.3%
Cc1cc2nc(-c3[nH]nc4c3CCN(c3ccc(NS(=O)(=O)c5ccccc5Cl)cn3)C4)[nH]c2cc1C | 100 | – | –
Cc1cc2nc(-c3[nH]nc4c3CCN(CC3CC3)C4)[nH]c2cc1C [Chemistry 21] | 33 | 1.85 | –
Cc1cc2nc(-c3[nH]nc4c3CCN(C)C4)[nH]c2cc1C [Chemistry 7] | 48.6 | 12.2 | –
Cc1cc2nc(-c3[nH]nc4c3CCN(C(=O)CN(C)C)C4)[nH]c2cc1C [Chemistry 55] | 65.4 | 15.9 | –
Cc1cc2nc(-c3[nH]nc4c3CCN(C(=O)c3ccccc3Oc3ccccc3)C4)[nH]c2cc1C [Example P-31378-112-5] | – | – | inhibition at 10 µM (human Tie2; [1]): 87.1%; inhibition at 10 µM (human Tie2; [2]): 86.4%; inhibition at 10 µM (human KDR enzyme; [3]): 94.7%; inhibition at 10 µM (human KDR enzyme; [4]): 95.4%

Compound | inhibition at 10 µM (human Tie2; read-out: Tie2 % Inhib. 10 μM) [%] | inhibition at 10 µM (human KDR enzyme; read-out: KDR % Inhib. 10 μM) [%] | also measured
CCCCS(=O)(=O)N1CCc2c(n[nH]c2-c2nc3cc(C)c(C)cc3[nH]2)C1 [Chemistry 30] | 44.2 | 15.3 | –
Cc1cc2nc(-c3[nH]nc4c3CCN(Cc3cccs3)C4)[nH]c2cc1C [Chemistry 13] | 41.5 | 84.5 | –
CCCC(=O)N1CCc2c(n[nH]c2-c2nc3cc(C)c(C)cc3[nH]2)C1 [Chemistry 52] | 89.3 | 29.4 | –
Cc1cc2nc(-c3[nH]nc4c3CCN(C(=O)c3ccco3)C4)[nH]c2cc1C [Chemistry 53] | 92.7 | 74.5 | –
Cc1cc2nc(-c3[nH]nc4c3CCN(C(=O)c3ccccc3Cc3ccccc3)C4)[nH]c2cc1C [Example P-31378-112-6] | – | – | inhibition at 10 µM (human Tie2; [1]): 92.7%; inhibition at 10 µM (human Tie2; [2]): 93.8%; inhibition at 10 µM (human KDR enzyme; [3]): 71.4%; inhibition at 10 µM (human KDR enzyme; [4]): 68%
Cc1cc2nc(-c3[nH]nc4c3CCN(Cc3ccco3)C4)[nH]c2cc1C [Chemistry 11] | 66.1 | 70.3 | –
Cc1cc2nc(-c3[nH]nc4c3CCN(C(=O)c3ccccc3)C4)[nH]c2cc1C [Chemistry 41] | 86.3 | 72.5 | –
Cc1cc2nc(-c3[nH]nc4c3CCN(Cc3cccc(Cl)c3Cl)C4)[nH]c2cc1C [Chemistry 10] | 83.9 | 79.5 | –
Cc1cc2nc(-c3[nH]nc4c3CCN(C(=O)Nc3ccccc3)C4)[nH]c2cc1C [Chemistry 59] | 33.2 | 17.6 | –
CCCCNC(=O)N1CCc2c(n[nH]c2-c2nc3cc(C)c(C)cc3[nH]2)C1 [Chemistry 64] | 38.5 | 18 | –
Cc1cc2nc(-c3[nH]nc4c3CCN(S(=O)(=O)c3ccccc3Cl)C4)[nH]c2cc1C [Chemistry 31] | 93.2 | 45.7 | –
Cc1cc2nc(-c3[nH]nc4c3CCN(CCc3ccccc3)C4)[nH]c2cc1C [Chemistry 9] | 56.7 | 15.4 | –
Cc1cc2nc(-c3[nH]nc4c3CCN(CCC(C)C)C4)[nH]c2cc1C [Chemistry 17] | 50.7 | -2.9 | –
Cc1cc2nc(-c3[nH]nc4c3CCN(S(=O)(=O)c3ccccc3)C4)[nH]c2cc1C [Chemistry 23] | 92.5 | 48 | –
Cc1ccc(S(=O)(=O)N2CCc3c(n[nH]c3-c3nc4cc(C)c(C)cc4[nH]3)C2)cc1 [Chemistry 35] | 88.8 | 27.4 | –
Cc1cc2nc(-c3[nH]nc4c3CCN(C(=O)c3ccccc3NCc3ccccc3)C4)[nH]c2cc1C [Example P-31378-112-8] | – | – | inhibition at 10 µM (human Tie2; [1]): 87.8%; inhibition at 10 µM (human Tie2; [2]): 93.3%; inhibition at 10 µM (human KDR enzyme; [3]): 86.8%; inhibition at 10 µM (human KDR enzyme; [4]): 89%
COc1ccc(S(=O)(=O)Nc2ccc(N3CCc4c(n[nH]c4-c4nc5cc(C)c(C)cc5[nH]4)C3)nc2)cc1 | 99 | – | –
Cc1cc2nc(-c3[nH]nc4c3CCN(Cc3cccc(Cl)c3)C4)[nH]c2cc1C [Chemistry 5] | – | 88.8 | –
Cc1cc2nc(-c3[nH]nc4c3CCN(c3ccc(NS(=O)(=O)c5cccs5)cn3)C4)[nH]c2cc1C | 100 | – | –
Cc1cc2nc(-c3[nH]nc4c3CCN(C(=O)NCCc3ccccc3)C4)[nH]c2cc1C [Chemistry 2] | – | 77.2 | –
Cc1cc2nc(-c3[nH]nc4c3CCN(C(=O)c3cccnc3)C4)[nH]c2cc1C [Chemistry 4] | – | 25.4 | –
